US20150164762A1, “USE OF ETHANOLAMINE PHOSPHATE” (priority 2012, published 2015)

Tested on: BEAS-2B
Test: Comprehensive gene expression analysis with Whole Human Genome DNA microarray after EP treatment
Type: cell-based
Procedure: Cells of the established normal human airway epithelial cell line BEAS-2B were used in the experiment. These cells were expansively cultured in 10% FBS RPMI-1640, and seeded at a density of 1×10^5/cm^2 on a 24-well plate. After 24 hours 0.1% FBS RPMI-1640 was substituted, and EP was administered to a final concentration of 0 or 1 mM (n=4). After 24 hours, the cells were used as the DNA microarray samples. RNA was extracted using a QIAGEN RNeasy Mini Kit. The DNA microarray test was performed using a Whole Human Genome DNA microarray 4×44K (Agilent), and the necessary labeling reagents and the like for the DNA microarray test were all from Agilent. The DNA microarray test data were analyzed statistically with GeneSpring (Agilent) dedicated analysis software, and gene function analysis (Gene Ontology (GO) analysis) was performed based on differential expression. The purpose of the GO analysis is to determine stochastically the degree to which gene sets with statistically significant differential expression correspond to known functional classification gene sets. […] The p-value is calculated according to the following formula.

NCCOP(=O)(O)O [EP, Ethanolamine phosphate]
expression of cytokines (1 mM EP, 24 h): reduced expression of many cytokines | R*: Ratio to control (AEN, probe A_23_P206077): 0.420 times | log2 [ratio] (AEN, probe A_23_P206077): −1.253 | R*: Ratio to control (AGGF1, probe A_23_P250554): 1.523 times | log2 [ratio] (AGGF1, probe A_23_P250554): 0.607 | R*: Ratio to control (AIFM2, probe A_32_P75094): 0.399 times | log2 [ratio] (AIFM2, probe A_32_P75094): −1.327 | R*: Ratio to control (AIFM3, probe A_23_P258194): 0.590 times | log2 [ratio] (AIFM3, probe A_23_P258194): −0.761 | R*: Ratio to control (ANXA2, probe A_23_P146644): 1.673 times | log2 [ratio] (ANXA2, probe A_23_P146644): 0.742 | R*: Ratio to control (ANXA2, probe A_32_P94798): 1.614 times | log2 [ratio] (ANXA2, probe A_32_P94798): 0.691 | R*: Ratio to control (APAF1, probe A_23_P36611): 0.420 times | log2 [ratio] (APAF1, probe A_23_P36611): −1.253 | R*: Ratio to control (APPL1, probe A_24_P302833): 1.723 times | log2 [ratio] (APPL1, probe A_24_P302833): 0.785 | R*: Ratio to control (ARHGAP24, probe A_23_P110151): 1.670 times | log2 [ratio] (ARHGAP24, probe A_23_P110151): 0.740 | R*: Ratio to control (ARHGAP24, probe A_24_P388659): 1.745 times | log2 [ratio] (ARHGAP24, probe A_24_P388659): 0.803 | R*: Ratio to control (ARHGEF6, probe A_23_P85024): 0.270 times | log2 [ratio] (ARHGEF6, probe A_23_P85024): −1.889 | R*: Ratio to control (BAK1, probe A_23_P145357): 0.402 times | log2 [ratio] (BAK1, probe A_23_P145357): −1.313 | R*: Ratio to control (BAX, probe A_23_P208706): 0.453 times | log2 [ratio] (BAX, probe A_23_P208706): −1.143 | R*: Ratio to control (BAX, probe A_23_P346311): 0.511 times | log2 [ratio] (BAX, probe A_23_P346311): −0.969 | R*: Ratio to control (BBC3, probe A_23_P382775): 0.315 times | log2 [ratio] (BBC3, probe A_23_P382775): −1.666 | R*: Ratio to control (BBC3, probe A_24_P305312): 0.366 times | log2 [ratio] (BBC3, probe A_24_P305312): −1.452 | R*: Ratio to control (BCAT1, probe A_24_P935986): 1.721 times | log2 [ratio] (BCAT1, probe A_24_P935986): 0.783 | R*: Ratio to control (BCL2L11, probe A_24_P122921): 0.636 times | log2 [ratio] (BCL2L11, probe A_24_P122921): −0.652 | R*: Ratio to control (BCL2L14, probe A_23_P128050): 0.594 times | log2 [ratio] (BCL2L14, probe A_23_P128050): −0.751 | R*: Ratio to control (BCL10, probe A_23_P115286): 0.542 times | log2 [ratio] (BCL10, probe A_23_P115286): −0.883 | R*: Ratio to control (BCL10, probe A_24_P19983): 0.571 times | log2 [ratio] (BCL10, probe A_24_P19983): −0.810 | R*: Ratio to control (BIK, probe A_23_P404867): 0.298 times | log2 [ratio] (BIK, probe A_23_P404867): −1.748 | R*: Ratio to control (BLOC1S2, probe A_23_P23960): 0.396 times | log2 [ratio] (BLOC1S2, probe A_23_P23960): −1.336 | R*: Ratio to control (BLOC1S2, probe A_24_P295543): 0.384 times | log2 [ratio] (BLOC1S2, probe A_24_P295543): −1.381 | R*: Ratio to control (BMP4, probe A_23_P54144): 1.820 times | log2 [ratio] (BMP4, probe A_23_P54144): 0.864 | R*: Ratio to control (BNIP3, probe A_23_P138635): 0.374 times | log2 [ratio] (BNIP3, probe A_23_P138635): −1.418 | R*: Ratio to control (BNIP3L, probe A_23_P134925): 0.633 times | log2 [ratio] (BNIP3L, probe A_23_P134925): −0.661 | R*: Ratio to control (BTG1, probe A_23_P87560): 0.416 times | log2 [ratio] (BTG1, probe A_23_P87560): −1.265 | R*: Ratio to control (C16orf5, probe A_23_P15247): 0.519 times | log2 [ratio] (C16orf5, probe A_23_P15247): −0.947 | R*: Ratio to control (CASP1, probe A_23_P202978): 0.641 times | log2 [ratio] (CASP1, probe A_23_P202978): −0.642 | R*: Ratio to control (CASP10, probe A_23_P209408): 0.552 times | log2 [ratio] (CASP10, probe A_23_P209408): −0.857 | R*: Ratio to control (CASP10, probe A_24_P139993): 0.609 times | log2 [ratio] (CASP10, probe A_24_P139993): −0.716 | R*: Ratio to control (CCBE1, probe A_23_P55544): 1.755 times | log2 [ratio] (CCBE1, probe A_23_P55544): 0.811 | R*: Ratio to control (CCBE1, probe A_32_P171043): 1.890 times | log2 [ratio] (CCBE1, probe A_32_P171043): 0.918 | R*: Ratio to control (CDKN1A, probe A_23_P59210): 0.439 times | log2 [ratio] (CDKN1A, probe A_23_P59210): −1.187 | R*: Ratio to control (CDKN1A, probe A_24_P89457): 0.294 times | log2 [ratio] (CDKN1A, probe A_24_P89457): −1.768 | R*: Ratio to control (CEBPB, probe A_23_P143242): 0.617 times | log2 [ratio] (CEBPB, probe A_23_P143242): −0.697 | R*: Ratio to control (CEBPB, probe A_23_P411296): 0.383 times | log2 [ratio] (CEBPB, probe A_23_P411296): −1.385 | R*: Ratio to control (CIDEC, probe A_23_P92025): 0.593 times | log2 [ratio] (CIDEC, probe A_23_P92025): −0.754 | R*: Ratio to control (CKLF, probe A_23_P118061): 1.501 times | log2 [ratio] (CKLF, probe A_23_P118061): 0.586 | R*: Ratio to control (CKLF, probe A_23_P206396): 1.601 times | log2 [ratio] (CKLF, probe A_23_P206396): 0.679 | R*: Ratio to control (CKLF, probe A_24_P215804): 1.551 times | log2 [ratio] (CKLF, probe A_24_P215804): 0.633 | R*: Ratio to control (CKS2, probe A_23_P71727): 1.510 times | log2 [ratio] (CKS2, probe A_23_P71727): 0.595 | R*: Ratio to control (COL8A1, probe A_23_P69030): 1.999 times | log2 [ratio] (COL8A1, probe A_23_P69030): 0.999 | R*: Ratio to control (COL8A1, probe A_23_P211762): 1.643 times | log2 [ratio] (COL8A1, probe A_23_P211762): 0.716 | R*: Ratio to control (COL8A1, probe A_24_P139152): 1.703 times | log2 [ratio] (COL8A1, probe A_24_P139152): 0.768 | R*: Ratio to control (DDIT3, probe A_23_P21134): 0.210 times | log2 [ratio] (DDIT3, probe A_23_P21134): −2.249 | R*: Ratio to control (FGF9, probe A_23_P105803): 1.606 times | log2 [ratio] (FGF9, probe A_23_P105803): 0.684 | R*: Ratio to control (GLI2, probe A_23_P500034): 2.060 times | log2 [ratio] (GLI2, probe A_23_P500034): 1.043 | R*: Ratio to control (HAND2, probe A_23_P373521): 1.971 times | log2 [ratio] (HAND2, probe A_23_P373521): 0.979 | R*: Ratio to control (IFI16, probe A_23_P217866): 0.585 times | log2 [ratio] (IFI16, probe A_23_P217866): −0.773 | R*: Ratio to control (IFNG, probe A_23_P151294): 0.611 times | log2 [ratio] (IFNG, probe A_23_P151294): −0.710 | R*: Ratio to control (IKBIP, probe A_23_P53467): 0.626 times | log2 [ratio] (IKBIP, probe A_23_P53467): −0.675 | R*: Ratio to control (IKBIP, probe A_23_P303210): 0.468 times | log2 [ratio] (IKBIP, probe A_23_P303210): −1.095 | R*: Ratio to control (IL1A, probe A_23_P72096): 0.216 times | log2 [ratio] (IL1A, probe A_23_P72096): −2.211 | R*: Ratio to control (KNG1, probe A_32_P230808): 0.358 times | log2 [ratio] (KNG1, probe A_32_P230808): −1.484 | R*: Ratio to control (LEPR, probe A_24_P231104): 1.659 times | log2 [ratio] (LEPR, probe A_24_P231104): 0.730 | R*: Ratio to control (LOX, probe A_23_P122216): 1.637 times | log2 [ratio] (LOX, probe A_23_P122216): 0.711 | R*: Ratio to control (MAP3K10, probe A_24_P284523): 0.570 times | log2 [ratio] (MAP3K10, probe A_24_P284523): −0.810 | R*: Ratio to control (MAPRE2, probe A_23_P89835): 1.538 times | log2 [ratio] (MAPRE2, probe A_23_P89835): 0.621 | R*: Ratio to control (MAPRE2, probe A_24_P193911): 1.666 times | log2 [ratio] (MAPRE2, probe A_24_P193911): 0.736 | R*: Ratio to control (MMP2, probe A_23_P163787): 1.578 times | log2 [ratio] (MMP2, probe A_23_P163787): 0.658 | R*: Ratio to control (MVC, probe A_24_P38363): 1.686 times | log2 [ratio] (MVC, probe A_24_P38363): 0.754 | R*: Ratio to control (NLRP1, probe A_23_P89550): 0.483 times | log2 [ratio] (NLRP1, probe A_23_P89550): −1.048 | R*: Ratio to control (NLRP1, probe A_24_P83615): 0.558 times | log2 [ratio] (NLRP1, probe A_24_P83615): −0.841 | R*: Ratio to control (NR2F2, probe A_23_P88589): 1.662 times | log2 [ratio] (NR2F2, probe A_23_P88589): 0.733 | R*: Ratio to control (NR2F2, probe A_24_P313354): 1.746 times | log2 [ratio] (NR2F2, probe A_24_P313354): 0.804 | R*: Ratio to control (NR4A1, probe A_23_P128230): 0.302 times | log2 [ratio] (NR4A1, probe A_23_P128230): −1.727 | R*: Ratio to control (NRP1, probe A_24_P135322): 1.664 times | log2 [ratio] (NRP1, probe A_24_P135322): 0.735 | R*: Ratio to control (NRP1, probe A_24_P928052): 1.990 times | log2 [ratio] (NRP1, probe A_24_P928052): 0.993 | R*: Ratio to control (NTF3, probe A_23_P360797): 0.492 times | log2 [ratio] (NTF3, probe A_23_P360797): −1.024 | R*: Ratio to control (NTRK1, probe A_23_P34804): 0.261 times | log2 [ratio] (NTRK1, probe A_23_P34804): −1.936 | R*: Ratio to control (OBSCN, probe A_24_P273157): 0.654 times | log2 [ratio] (OBSCN, probe A_24_P273157): −0.613
